# ± gives the expanded uncertainty stated by the source.
# Legend:
# [1] = for mass density / kinematic viscosity: 101.33 kPa, Liquid; for mass density: Vibrating tube method; for surface tension liquid-gas / kinematic viscosity: Surface laser light scattering (SLLS)
# [2] = refractive index (Na D-line) (dimensionless); details: 101.33 kPa, Liquid, Standard Abbe refractometry
smiles,measurement,setting,value
CCCCCCCCCCCC(=O)OC [methyl dodecanoate],mass density,[1]; 293.15 K,869.26 ± 1.7 kg/m3
same,surface tension liquid-gas,[1]; 298.14 K,23.49 ± 1.1 mN/m
same,kinematic viscosity,[1]; 298.14 K,2.81e-06 ± 1.6e-07 m2/s
same,mass density,[1]; 303.15 K,861.25 ± 1.7 kg/m3
same,mass density,[1]; 313.15 K,853.32 ± 1.7 kg/m3
same,mass density,[1]; 323.15 K,845.42 ± 1.7 kg/m3
same,surface tension liquid-gas,[1]; 323.16 K,22.02 ± 0.79 mN/m
same,kinematic viscosity,[1]; 323.16 K,1.9e-06 ± 7.6e-08 m2/s
same,mass density,[1]; 333.15 K,837.53 ± 1.7 kg/m3
same,mass density,[1]; 343.15 K,829.63 ± 1.7 kg/m3
same,surface tension liquid-gas,[1]; 348.15 K,21.12 ± 0.27 mN/m
same,kinematic viscosity,[1]; 348.15 K,1.44e-06 ± 4.3e-08 m2/s
same,mass density,[1]; 353.15 K,820.84 ± 1.6 kg/m3
same,mass density,[1]; 363.15 K,813.94 ± 1.6 kg/m3
same,mass density,[1]; 373.15 K,806.11 ± 1.6 kg/m3
same,surface tension liquid-gas,[1]; 373.17 K,19.82 ± 0.38 mN/m
same,kinematic viscosity,[1]; 373.17 K,1.14e-06 ± 3.4e-08 m2/s
same,mass density,[1]; 383.15 K,798.22 ± 1.6 kg/m3
same,mass density,[1]; 393.15 K,790.34 ± 1.6 kg/m3
same,surface tension liquid-gas,[1]; 398.27 K,18.66 ± 0.26 mN/m
same,kinematic viscosity,[1]; 398.27 K,9.1e-07 ± 3.2e-08 m2/s
same,mass density,[1]; 403.15 K,782.4 ± 1.6 kg/m3
same,mass density,[1]; 413.15 K,774.39 ± 1.6 kg/m3
same,mass density,[1]; 423.15 K,766.34 ± 1.5 kg/m3
same,surface tension liquid-gas,[1]; 423.25 K,17.48 ± 0.12 mN/m
same,kinematic viscosity,[1]; 423.25 K,7.36e-07 ± 2.7e-08 m2/s
same,mass density,[1]; 433.15 K,758.26 ± 1.5 kg/m3
same,mass density,[1]; 443.15 K,750.06 ± 1.5 kg/m3
same,surface tension liquid-gas,[1]; 448.25 K,15.99 ± 0.09 mN/m
same,kinematic viscosity,[1]; 448.25 K,5.99e-07 ± 2.2e-08 m2/s
same,mass density,[1]; 453.15 K,741.94 ± 1.5 kg/m3
same,refractive index,[2]; 278.15 K,1.43836 ± 0.0005
same,refractive index,[2]; 283.15 K,1.43629 ± 0.0005
same,refractive index,[2]; 288.15 K,1.43422 ± 0.0005
same,refractive index,[2]; 293.15 K,1.43216 ± 0.0005
same,refractive index,[2]; 298.15 K,1.43009 ± 0.0005
same,refractive index,[2]; 303.15 K,1.42802 ± 0.0005
same,refractive index,[2]; 308.15 K,1.42594 ± 0.0005
same,refractive index,[2]; 313.15 K,1.42383 ± 0.0005
same,refractive index,[2]; 318.15 K,1.42171 ± 0.0005
same,refractive index,[2]; 323.15 K,1.41959 ± 0.0005
same,refractive index,[2]; 328.15 K,1.4175 ± 0.0005
same,refractive index,[2]; 333.15 K,1.41542 ± 0.0005
same,refractive index,[2]; 338.15 K,1.41334 ± 0.0005
same,refractive index,[2]; 343.15 K,1.41127 ± 0.0005
same,refractive index,[2]; 348.15 K,1.40922 ± 0.0005
same,refractive index,[2]; 353.15 K,1.40717 ± 0.0005
same,refractive index,[2]; 358.15 K,1.40513 ± 0.0005
CCCCCCCCCCCCCC(=O)OCC [ethyl tetradecanoate],mass density,[1]; 293.15 K,860.8 ± 1.7 kg/m3
same,mass density,[1]; 303.15 K,853.07 ± 1.7 kg/m3
same,mass density,[1]; 313.15 K,845.46 ± 1.7 kg/m3
same,surface tension liquid-gas,[1]; 323.14 K,24.08 ± 0.47 mN/m
same,kinematic viscosity,[1]; 323.14 K,2.63e-06 ± 8.9e-08 m2/s
same,mass density,[1]; 323.15 K,837.86 ± 1.7 kg/m3
same,mass density,[1]; 333.15 K,830.3 ± 1.7 kg/m3
same,mass density,[1]; 343.15 K,822.77 ± 1.6 kg/m3
same,surface tension liquid-gas,[1]; 348.16 K,22.25 ± 0.52 mN/m
same,kinematic viscosity,[1]; 348.16 K,1.9e-06 ± 7.8e-08 m2/s
same,mass density,[1]; 353.15 K,815.26 ± 1.6 kg/m3
same,mass density,[1]; 363.15 K,807.75 ± 1.6 kg/m3
same,mass density,[1]; 373.15 K,799.27 ± 1.6 kg/m3
same,surface tension liquid-gas,[1]; 373.22 K,20.56 ± 0.24 mN/m
same,kinematic viscosity,[1]; 373.22 K,1.43e-06 ± 7.2e-08 m2/s
same,mass density,[1]; 383.15 K,792.77 ± 1.6 kg/m3
same,mass density,[1]; 393.15 K,785.27 ± 1.6 kg/m3
same,surface tension liquid-gas,[1]; 398.24 K,19.48 ± 0.18 mN/m
same,kinematic viscosity,[1]; 398.24 K,1.12e-06 ± 4.3e-08 m2/s
same,mass density,[1]; 403.15 K,777.75 ± 1.6 kg/m3
same,mass density,[1]; 413.15 K,770.21 ± 1.6 kg/m3
same,mass density,[1]; 423.15 K,762.65 ± 1.5 kg/m3
same,surface tension liquid-gas,[1]; 423.26 K,18.15 ± 0.3 mN/m
same,kinematic viscosity,[1]; 423.26 K,8.97e-07 ± 3.2e-08 m2/s
same,mass density,[1]; 433.15 K,755.04 ± 1.5 kg/m3
same,mass density,[1]; 443.15 K,747.42 ± 1.5 kg/m3
same,surface tension liquid-gas,[1]; 448.28 K,16.53 ± 0.1 mN/m
same,kinematic viscosity,[1]; 448.28 K,7.25e-07 ± 2.5e-08 m2/s
same,mass density,[1]; 453.15 K,739.78 ± 1.5 kg/m3
same,refractive index,[2]; 288.15 K,1.43841 ± 0.00049
same,refractive index,[2]; 293.15 K,1.43636 ± 0.00049
same,refractive index,[2]; 298.15 K,1.43432 ± 0.00049
same,refractive index,[2]; 303.15 K,1.4323 ± 0.00049
same,refractive index,[2]; 308.15 K,1.43026 ± 0.00049
same,refractive index,[2]; 313.15 K,1.4282 ± 0.00049
same,refractive index,[2]; 318.15 K,1.42613 ± 0.00049
same,refractive index,[2]; 323.15 K,1.42407 ± 0.00049
same,refractive index,[2]; 328.15 K,1.42205 ± 0.00049
same,refractive index,[2]; 333.15 K,1.42004 ± 0.00049
same,refractive index,[2]; 338.15 K,1.41803 ± 0.00049
same,refractive index,[2]; 343.15 K,1.41603 ± 0.00049
same,refractive index,[2]; 348.15 K,1.41406 ± 0.00049
same,refractive index,[2]; 353.15 K,1.41208 ± 0.00049
same,refractive index,[2]; 358.15 K,1.4101 ± 0.00049
CCCCCCCCCCCCCC(=O)OC [methyl tetradecanoate],mass density,[1]; 293.15 K,867.06 ± 1.7 kg/m3
same,mass density,[1]; 303.15 K,859.28 ± 1.7 kg/m3
same,mass density,[1]; 313.15 K,851.61 ± 1.7 kg/m3
same,mass density,[1]; 323.15 K,843.97 ± 1.7 kg/m3
same,surface tension liquid-gas,[1]; 323.17 K,23.37 ± 0.83 mN/m
same,kinematic viscosity,[1]; 323.17 K,2.41e-06 ± 7.6e-08 m2/s
same,mass density,[1]; 333.15 K,836.37 ± 1.7 kg/m3
same,mass density,[1]; 343.15 K,828.8 ± 1.7 kg/m3
same,surface tension liquid-gas,[1]; 348.16 K,21.83 ± 0.42 mN/m
same,kinematic viscosity,[1]; 348.16 K,1.76e-06 ± 1.1e-07 m2/s
same,mass density,[1]; 353.15 K,821.26 ± 1.6 kg/m3
same,mass density,[1]; 363.15 K,813.71 ± 1.6 kg/m3
same,mass density,[1]; 373.15 K,806.17 ± 1.6 kg/m3
same,surface tension liquid-gas,[1]; 373.18 K,20.78 ± 0.56 mN/m
same,kinematic viscosity,[1]; 373.18 K,1.38e-06 ± 7.4e-08 m2/s
same,mass density,[1]; 383.15 K,798.64 ± 1.6 kg/m3
same,mass density,[1]; 393.15 K,791.09 ± 1.6 kg/m3
same,surface tension liquid-gas,[1]; 398.2 K,19.71 ± 0.09 mN/m
same,kinematic viscosity,[1]; 398.2 K,1.08e-06 ± 3.3e-08 m2/s
same,mass density,[1]; 403.15 K,783.52 ± 1.6 kg/m3
same,mass density,[1]; 413.15 K,775.91 ± 1.6 kg/m3
same,mass density,[1]; 423.15 K,768.24 ± 1.5 kg/m3
same,surface tension liquid-gas,[1]; 423.17 K,18.31 ± 0.15 mN/m
same,kinematic viscosity,[1]; 423.17 K,8.63e-07 ± 2.8e-08 m2/s
same,mass density,[1]; 433.15 K,760.61 ± 1.5 kg/m3
same,mass density,[1]; 443.15 K,752.95 ± 1.5 kg/m3
same,surface tension liquid-gas,[1]; 448.17 K,16.82 ± 0.09 mN/m
same,kinematic viscosity,[1]; 448.17 K,7e-07 ± 2.5e-08 m2/s
same,mass density,[1]; 453.15 K,745.22 ± 1.5 kg/m3
same,refractive index,[2]; 293.15 K,1.43704 ± 0.00049
same,refractive index,[2]; 298.15 K,1.43499 ± 0.00049
same,refractive index,[2]; 303.15 K,1.43296 ± 0.00049
same,refractive index,[2]; 308.15 K,1.43093 ± 0.00049
same,refractive index,[2]; 313.15 K,1.4289 ± 0.00049
same,refractive index,[2]; 318.15 K,1.42681 ± 0.00049
same,refractive index,[2]; 323.15 K,1.42472 ± 0.00049
same,refractive index,[2]; 328.15 K,1.42254 ± 0.00049
same,refractive index,[2]; 333.15 K,1.4202 ± 0.00049
same,refractive index,[2]; 338.15 K,1.41783 ± 0.00049
same,refractive index,[2]; 343.15 K,1.4163 ± 0.00049
same,refractive index,[2]; 348.15 K,1.41474 ± 0.00049
same,refractive index,[2]; 353.15 K,1.41282 ± 0.00049
same,refractive index,[2]; 358.15 K,1.41083 ± 0.00049

# — the NIST ThermoML archive (doi:10.1016/j.jct.2019.02.025)
